Source: patent publication US6344576B1, “Phospholipid-analogous compounds” (Max-Planck-Gesellschaft zur Förderung der Wissenschaften …, priority 1997, dated 2002)

Assays:
[1] = Use as solubilizer for substances of low solubility in water
[2] = Behaviour in water (solubility, gel formation, suitability for intravenous administration); type: physicochemical

gel formation in water [2] | Compound | suitability as solubilizer for substances of low solubility in water [1]
 | CCCCCCCC/C=C\CCCCCCCCCCCC(=O)OC[C@@H](O)COP(=O)([O-])OCCC[N+](C)(C)C [Example 139, 1-Erucoyl-sn-glycero-3-phospho-N,N,N-trimethyl-propylammonium] | proved useful
 | CCCCCCCC/C=C\CCCCCCCC(=O)OC[C@H](COP(=O)([O-])OCCC[N+](C)(C)C)OC(=O)CCCCCCC/C=C\CCCCCCCC [Example 85, 1,2-Dioleoyl-sn-glycero-3-phospho-N,N,N-trimethyl-propylammonium] | proved useful
forms gel-like structures in water | CCCCCCCC/C=C\CCCCCCCCCCCCOP(=O)([O-])OCC[N+](C)(C)C [Erucylphosphocholine] | 
 | 1,2-Dioleoyl-sn-glycero-3-phospho-N,N-dimethyl-N-dihydroxypropyl-ethylammonium [Example 14] | proved useful
